Reference: patent publication US7446225B2, “Pentafluorosulfanylphenyl-substituted benzoylguanidines, method for the production thereof, their use as a medicament or diagnostic agent, and a medicament containing these compounds” (Sanofi-aventis Deutschland GmbH, priority 2004, dated 2008)
pIC50: −log10 of the molar value.

Target: T1, human NHE-1 (Homo sapiens, UniProt P19634)
T1 construct: expressed in transfected cells; host or cells: LAP-1 (NHE-deficient parental cell line), stably transfected, G418 selection
Assay: FLIPR assay of pHi recovery for NHE-1 inhibition
Assay type: cell-based
Details: transfected LAP-1 cell line expressing human NHE-1, BCECF pHi recovery, read-out: NHE1 inhibition IC50
Experimental: The inhibitory concentration IC50 for NHE-1 inhibition was determined as follows:
IC50 for NHE-1 inhibition were determined in a FLIPR assay by measurement of the recovery in pHi in transfected cell lines which express human NHE-1.
The assay was carried out in an FLIPR (fluorescent imaging plate reader) with black-walled 96-well microtiter plates with clear bases.
The growth medium for the transfected cells (Iscove+10% fetal calf serum) additionally contained G418 as selection antibiotic in order to ensure the presence of the transfected sequences.
The actual assay started with the removal of the growth medium and addition of 100 μl of loading buffer per well (5 μM BCECF-AM [2′,7′-bis(carboxyethyl)-5-(and -6-)carboxyfluorescein, acetoxymethyl ester] in 20 mM NH4Cl, 115 mM choline chloride, 1 mM MgCl2, 1 mM CaCl2, 5 mM KCl, 20 mM HEPES, 5 mM glucose; pH 7.4 [adjusted with KOH]). The cells were then incubated at 37° C. for 20 minutes. This incubation led to loading of the cells with the fluorescent dye whose fluorescence intensity depends on pHi, and with NH4Cl which makes the cells slightly alkaline. The nonfluorescent dye precursor BCECF-AM is, as ester, membrane-permeable. The actual dye BCECF is not membrane-permeable but is liberated inside cells by esterases. […]

T1 sequence (P19634 whole entry): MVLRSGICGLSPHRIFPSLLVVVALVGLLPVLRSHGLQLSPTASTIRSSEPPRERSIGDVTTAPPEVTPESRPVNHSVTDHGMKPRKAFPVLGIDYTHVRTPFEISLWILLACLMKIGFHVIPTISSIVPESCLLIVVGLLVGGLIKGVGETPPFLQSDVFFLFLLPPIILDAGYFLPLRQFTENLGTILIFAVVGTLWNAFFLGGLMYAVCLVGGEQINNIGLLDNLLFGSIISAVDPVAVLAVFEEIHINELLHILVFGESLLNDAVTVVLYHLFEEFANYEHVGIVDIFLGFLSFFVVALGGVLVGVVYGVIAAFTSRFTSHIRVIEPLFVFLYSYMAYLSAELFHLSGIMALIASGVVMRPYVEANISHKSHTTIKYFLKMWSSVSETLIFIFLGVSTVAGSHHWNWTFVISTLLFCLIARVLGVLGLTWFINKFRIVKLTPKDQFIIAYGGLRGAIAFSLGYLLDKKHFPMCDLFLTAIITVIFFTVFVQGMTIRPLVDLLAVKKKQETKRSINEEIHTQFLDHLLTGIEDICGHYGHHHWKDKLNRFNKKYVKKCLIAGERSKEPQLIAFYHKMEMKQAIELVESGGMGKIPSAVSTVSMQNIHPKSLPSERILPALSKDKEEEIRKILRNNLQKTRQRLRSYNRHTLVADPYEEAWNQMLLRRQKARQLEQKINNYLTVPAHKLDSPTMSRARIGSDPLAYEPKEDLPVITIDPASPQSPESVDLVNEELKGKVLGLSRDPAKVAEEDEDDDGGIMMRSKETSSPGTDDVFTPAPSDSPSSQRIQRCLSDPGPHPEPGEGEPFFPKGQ

pIC50: 7.48
Compound: Cc1cc(Oc2ccc(S(C)(=O)=O)c(S(F)(F)(F)(F)F)c2)c(S(C)(=O)=O)cc1C(=O)N=C(N)N [Example 1, N-[5-methanesulfonyl-4-(4-methanesulfonyl-3-pentafluorosulfanyl-phenoxy)-2-methylbenzoyl]guanidine]
